These results are taken from article PMC6628648, “Enabling microbial syringol conversion through structure-guided protein engineering” (Proceedings of the National Academy of Sciences of the …, 2019).

Structures are written as SMILES.

Test [1] deals with T1, WT GcoA (Amycolatopsis sp., UniProt P0DPQ7).
T1 construct: GST (N, cleaved yes); made in house; host or cells: E. coli Rosetta 2 (DE3)
T1 sequence (P0DPQ7 1-407): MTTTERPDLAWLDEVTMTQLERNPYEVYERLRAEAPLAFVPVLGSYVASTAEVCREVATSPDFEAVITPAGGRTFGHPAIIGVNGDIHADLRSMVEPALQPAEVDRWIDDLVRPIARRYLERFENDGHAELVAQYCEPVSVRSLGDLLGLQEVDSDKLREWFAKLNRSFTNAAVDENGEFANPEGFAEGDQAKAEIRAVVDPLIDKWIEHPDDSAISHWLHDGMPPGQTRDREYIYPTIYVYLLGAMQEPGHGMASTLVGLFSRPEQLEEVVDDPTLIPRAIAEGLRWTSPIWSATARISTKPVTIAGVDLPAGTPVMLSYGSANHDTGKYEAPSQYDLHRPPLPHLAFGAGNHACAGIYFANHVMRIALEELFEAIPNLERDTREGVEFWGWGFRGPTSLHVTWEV
In words: End-point coupling assay (formaldehyde produced per NADH consumed). The settings on record: molar ratio formaldehyde produced per NADH consumed, 200 µM NADH, 200 µM aromatic substrate. It counts as biochemical, Amycolatopsis sp. ATCC 39116.

Test [2] addresses T2, GcoA variant F169L (Amycolatopsis sp., UniProt P0DPQ7, F169L).
T2 construct: GST (N, cleaved yes); made in house; host or cells: E. coli Rosetta 2 (DE3)
Kind of test: NADH consumption assay (specific activity) with GcoB. In kind it is biochemical, Amycolatopsis sp. ATCC 39116. The settings on record: saturating (200 µM) substrate, pH 7.5, 25°C.

For test [3], the target named is GcoA-F169A (Amycolatopsis sp., UniProt P0DPQ7, F169A). Kind of test: NADH consumption assay (steady-state kinetics, specific activity) with GcoB. The note with it: for Specific activity: NADH consumption, saturating (200 µM) substrate, pH 7.5, 25°C; for NADH disappearance (specific activity): Table S1, saturating substrate.
GcoA-F169A, sequence (P0DPQ7 whole entry F169A): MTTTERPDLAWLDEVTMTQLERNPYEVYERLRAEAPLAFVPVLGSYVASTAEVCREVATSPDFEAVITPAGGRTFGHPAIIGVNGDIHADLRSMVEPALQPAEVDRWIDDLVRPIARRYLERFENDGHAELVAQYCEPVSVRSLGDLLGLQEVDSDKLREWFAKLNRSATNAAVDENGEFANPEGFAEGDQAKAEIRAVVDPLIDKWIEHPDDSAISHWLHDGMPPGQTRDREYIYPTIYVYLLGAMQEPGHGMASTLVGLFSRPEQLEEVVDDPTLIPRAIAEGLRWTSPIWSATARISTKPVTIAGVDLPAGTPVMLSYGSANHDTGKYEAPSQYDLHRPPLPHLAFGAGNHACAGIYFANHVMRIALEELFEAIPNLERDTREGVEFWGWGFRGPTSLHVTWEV
The target of test [4] is T3, GcoA variant F169I (Amycolatopsis sp., UniProt P0DPQ7, F169I).
T3 construct: GST (N, cleaved yes); made in house; host or cells: E. coli Rosetta 2 (DE3)
T3 sequence (P0DPQ7 whole entry F169I): as the sequence (P0DPQ7 whole entry F169A) above, with A169I counted along it
Kind of test: End-point coupling assay (formaldehyde produced per NADH consumed). The settings on record: molar ratio formaldehyde produced per NADH consumed, 200 µM NADH, 200 µM aromatic substrate. It counts as biochemical, Amycolatopsis sp. ATCC 39116. As to the method:
(§1) The [formaldehyde] produced on reaction with GcoA-F169A and substrates was determined using a colorimetric assay with tryptophan ([28], [42]); details are provided in SI Appendix. […]
(§2) vi = Vmax[S]/(KM + [S]) (4) […]
(§3) Formaldehyde determination. A colorimetric assay using tryptophan can be used to quantify the amount of formaldehyde produced in F169 GcoA/B reactions with guaiacol, syringol, or 3MC. 0.2 µM each of F169 GcoA mutants and GcoB were dissolved in air-saturated buffer (25 mM HEPES, 50 mM NaCl) in a cuvette at pH 7.5, 25 °C. 100 µg/mL catalase was added to each reaction to capture any H2O2 formed during the uncoupled reaction. 200 μM NADH was added and the background rate recorded. 100 (guaiacol, syringol, or 3MC) or 200 (syringol) μM of substrate was then added and the reaction monitored until there was no more change, due to either substrate, NADH or O2 depletion, whichever occurred first. 200 µL of the reaction was then quenched by adding 200 µL of a 0.1% tryptophan solution in 50% ethanol and 200 µL of 90% sulfuric acid. Upon thorough mixing, 40 µL of 1% FeCl3 was added. The solution was then incubated in a heating block for 90 min at 70 °C. After cooling, the absorbance was read at 575 nm and the [formaldehyde] calculated by using ε575 nm = 4.2 mM-1 cm-1, obtained with formaldehyde as a standard (1). A negative control included everything but the substrate and was used as a baseline. […]
(§4) The reaction of each aliquot was immediately quenched with 12.5
(§5) μL saturated ammonium sulfate, 7% v/v H2SO4 (pH 2.0) prior to loading onto the HPLC column. [Substrate] disappearance was referenced to GcoA (0.2 µM) and fit to a linear line to determine specific activity.
(§6) Data analysis. The consumption of NADH and subsequent production of formaldehyde and aromatic product were measured in triplicate and the error reported as ±1 standard deviation. To determine the statistical significance between NADH consumption and the products produced, the p-value was determined for all runs containing guaiacol, syringol, and 3MC. These values were calculated using two degrees of freedom, a tail value of two, and assuming a t-statistical value for unequal variances.
(§7) Detection of H2O2 via horseradish peroxidase (HRP) and Amplex Red assay. The reaction between 100 μM guaiacol or 3MC with 0.2 μM F169A/GcoB and 100 μM NADH in air-saturated buffer (25 mM HEPES, 50 mM NaCl, pH 7.5) was monitored continuously in a quartz cuvette, using the NADH consumption assay described above. The same thing was done for syringol, but with either 100 or 200 μM NADH. When there was no longer any change in the spectra, e.g., the reaction was completed, 100 μL was removed from the cuvette and pipetted into a 96-well microplate. A 5 mL solution containing 50 μL of 10 mM Amplex Red (prepared in DMSO and stored at -20 °C) and 100 μL of 10 U/mL HRP was made up in the above buffer. 100 μL of this was added to each of the wells with each reaction sample. The plate was incubated in the dark at room temperature for 30 min, at which point the absorbance at […]
(§8) Table S1. Rate of substrate disappearance or product appearance (specific activity) for F169A.
(§9) Substrate NADH disappearance aromatic substrate disappearance KD (µM) […]
(§10) Table S2. Rates of substrate disappearance and coupling efficiencies for reactions catalyzed by the GcoA-F169 variants.
(§11) GcoA Specific activity Coupling Specific activity Coupling Specific activity (μmol Coupling variant (μmol sec-1 μmol-1 efficiency (μmol sec-1 μmol-1 efficiency sec-1 μmol-1 GcoA)a efficiency GcoA)a (%)b GcoA)a (%)b (%)b […]
(§12) aNADH consumption was monitored continuously over time via UV/vis and quantifying with ε340 = 6.22 mM-1 cm-1 at 25°C, 25 mM HEPES, 50 mM NaCl, pH 7.5 and saturating (200 µM) concentrations of all substrates (syringol, guaiacol, and 3MC). bCalculated as the molar ratio of formaldehyde produced per NADH consumed in a fixed-time assay. Assay conditions: 0.2 µM […]

In test [5] the target is T4, GcoA variant F169V (Amycolatopsis sp., UniProt P0DPQ7, F169V).
T4 construct: GST (N, cleaved yes); made in house; host or cells: E. coli Rosetta 2 (DE3)
T4 sequence (P0DPQ7 whole entry F169V): as the sequence (P0DPQ7 whole entry F169A) above, with A169V counted along it
The test is described as above. It counts as biochemical, Amycolatopsis sp. ATCC 39116. The note with it: molar ratio formaldehyde produced per NADH consumed, 200 µM NADH, 200 µM aromatic substrate. As to the method: as §1, §2, §3, §4, §5, §6, §7, §8, §9, §10, §11, §12

Test [6] addresses T5, GcoA variant F169S (Amycolatopsis sp., UniProt P0DPQ7, F169S).
T5 construct: GST (N, cleaved yes); made in house; host or cells: E. coli Rosetta 2 (DE3)
Described as above. In kind it is biochemical, Amycolatopsis sp. ATCC 39116. The note with it: molar ratio formaldehyde produced per NADH consumed, 200 µM NADH, 200 µM aromatic substrate. On the procedure: as §1, §2, §3, §4, §5, §6, §7, §8, §9, §10, §11, §12

Test [7] addresses T2, GcoA variant F169L. The description is as above. The note with it: molar ratio formaldehyde produced per NADH consumed, 200 µM NADH, 200 µM aromatic substrate. In kind it is biochemical, Amycolatopsis sp. ATCC 39116. As to the method: as §1, §2, §3, §4, §5, §6, §7, §8, §9, §10, §11, §12
Test [8] addresses T6, GcoA variant F169H (Amycolatopsis sp., UniProt P0DPQ7, F169H).
T6 construct: GST (N, cleaved yes); made in house; host or cells: E. coli Rosetta 2 (DE3)
The test is described as above. In kind it is biochemical, Amycolatopsis sp. ATCC 39116. The settings on record: molar ratio formaldehyde produced per NADH consumed, 200 µM NADH, 200 µM aromatic substrate. On the procedure: as §1, §2, §3, §4, §5, §6, §7, §8, §9, §10, §11, §12

T2 sequence (P0DPQ7 whole entry F169L): as the sequence (P0DPQ7 whole entry F169A) above, with A169L counted along it
T5 sequence (P0DPQ7 whole entry F169S): as the sequence (P0DPQ7 whole entry F169A) above, with A169S counted along it
T6 sequence (P0DPQ7 whole entry F169H): as the sequence (P0DPQ7 whole entry F169A) above, with A169H counted along it

As to `COc1cccc(O)c1O` [3MC, 3-methoxycatechol], the Coupling efficiency in test [1] turned out to be 78 ± 3%; in test [4], 10 ± 9%; in test [5] it was 40 ± 3%; in test [6] it was 67 ± 8%; in test [7] it was 5.0 ± 4%; in test [8], 28 ± 20%. For the same compound, the values for the Specific activity in test [2] and in test [3] were 0.57 ± 0.2 μmol sec-1 μmol-1 GcoA and 5.6 ± 0.8 μmol sec-1 μmol-1 GcoA, respectively. For the same compound, the “NADH disappearance (specific activity)” value in test [3] is reported as 5.6 ± 0.8 μM s-1 μmol F169A-1.
`COc1cccc(OC)c1O` [syringol, 2,6-dimethoxyphenol]: the Coupling efficiency was determined as 7.1 ± 0.8% in test [1]; 14 ± 2% in test [4]; 100 ± 10% in test [5]; 85 ± 5% in test [6]; 7.8 ± 2% in test [7]; 56 ± 7% in test [8]. Further, the figures for the Specific activity in test [2] and in test [3] were 0.54 ± 0.1 μmol sec-1 μmol-1 GcoA and 5.1 ± 0.8 μmol sec-1 μmol-1 GcoA, respectively. Also, in test [3], the “NADH disappearance (specific activity)” value turned out to be 5.1 ± 0.8 μM s-1 μmol F169A-1.
In the case of `COc1ccccc1O` [guaiacol, 2-methoxyphenol], the Coupling efficiency in test [1] is listed as 110 ± 10%; in test [4] it was 41 ± 10%; in test [5] it was 105 ± 2%; in test [6] it was 67 ± 8%; in test [7] it was 73 ± 3%; in test [8], 103 ± 10%. For the same compound, the Specific activity in test [2] was 4.5 ± 0.3 μmol sec-1 μmol-1 GcoA; in test [3], 5.8 ± 0.8 μmol sec-1 μmol-1 GcoA. For the same compound, in test [3], the “NADH disappearance (specific activity)” value was determined as 5.8 ± 0.8 μM s-1 μmol F169A-1.
